One data set has as its system adult DRG neurons. Put plainly: Axon elongation of replated adult DRG neurons after shRNA/AAV treatment (Tuj1 staining, longest neurite). The format is cell-based, mouse. Particulars: for effect on axon regrowth / axon growth of DRG neurons: shRNA in WT DRG neurons vs control shRNA.
The subject of data set [1] is DRG neurons. Put plainly: Axon elongation of cultured DRG neurons treated with inhibitor compounds. The format is cell-based, mouse. The settings on record: for axon regrowth / axon regeneration in DRG neuron culture: one day after compound treatment, A-922500 500 nM, pradigastat 1 μM, PF combination 10 μM each; for axon elongation in dissociated primary DRG neuron culture: Atglistatin 10 μM, KLH-45 10 μM (figure legend), vs DMSO vehicle. The method, then:
DRG primary culture and replating were performed as previously described. In brief, for primary culture, L4-L6 DRGs from 7-8 weeks wild-type mice of both genders were dissected and then digested in 0.5% collagenase for 1.5 h. After termination of digestion, DRGs were pipetted 20-30 times in a tube for complete dissociation. Neurobasal-A with B27 as a supplement was used as a medium for DRG culture. Virus was added at 1 day in vitro (DIV1) for genetic manipulation. […]
For replating DRG neuron culture, at DIV9-11 of primary DRG culture, cells were gently pipetted on culture dishes. Cells were flushed by 20-30 rounds of pipetting in each well of a 6-well plate. After all the cells were resuspended, they were replated onto a 24-well plate. Fixation and staining were performed 24 h after replating. Tuj1 staining was used to visualize axons and cell bodies of neurons. The lengths of the longest neurites from each DRG neuron were measured manually by NeuronJ in ImageJ. Average lengths of 10-20 neurites from 3 individual mice were used in each group.
In the final step of the glycerol phosphate pathway DGAT enzymes catalyze DGs into TGs. To assess the effect of blocking the DGAT enzyme, commercially available, DGAT1 inhibitors were used in culture. A-922500 (500 nM) and pradigastat (1 μM) were individually tested in a culture medium of DRG neurons. A combination of PF-06424439 (10 μM) and PF-046201101 (10 μM) was also tested in a culture medium of DRG neurons. […] Then, a KD experiment was performed by transfecting Dgat1 shRNA (shDgat1) targeting SEQ ID NO: 8, Dgat2 shRNA (shDgat2) targeting SEQ ID NO: 9 into DRG neurons. […] Because axotomy increases Lipin1 expression in RGCs, a study was conducted to determine whether DGAT enzymes were also regulated by axonal injury.

In data set [2] the test system is sensory axons in the sciatic nerve. Put plainly: Sciatic nerve crush, sensory axon regeneration (SCG10 staining). Particulars: WT mice, i.p. KLH-45 30 mg/kg/day, Atglistatin 40 mg/kg/day, 5 days before and 2 days after injury; two days regrowth. The format is in vivo, mouse. The procedure: KLH-45 (30 mg/kg/day) or Atglistatin (40 mg/kg/day) were delivered by intraperitoneal injection for 5 consecutive days before injury and 2 days after injury. The same dosage of DMSO injection was used as a control treatment. Sciatic nerve injury was performed as previously described. Briefly, after an incision was made on the skin at the middle thigh level, muscle was gently dissected to expose the sciatic nerve. Then, the sciatic nerve was crushed for 10 s by forceps (Dumont #2; Fine Science Tools). For the sham group, the sciatic nerve was only exposed but not crushed.
Sciatic nerve sections with SCG10 staining were used to quantify the regeneration index. A column with a width of 50 pixels was drawn at different distances from the lesion center, and the average intensity of SCG10 staining was measured using ImageJ. The distance between the lesion center and the column with half the intensity of the lesion center was considered as the regeneration index.
Consistently, Ddhd2 KD in isolated DRG neurons suppressed axon elongation in culture, and as a positive control Lipin1 KD increased the axon length. Then, vehicle KLH-45, or KLH-45 combined with Atglistatin was systematically administered into WT mice. The sciatic nerve was then crushed, and the sensory axons were allowed to regrow for two days before examination. […]

The test system of data set [3] is DRG neurons. The experiment in a line: Lipid droplet formation in cultured DRG neurons (BODIPY staining). The settings on record: cultured adult DRG neurons, three days, vs DMSO vehicle. The format is cell-based, mouse. The method, then:
DRG primary culture and replating were performed as previously described. In brief, for primary culture, L4-L6 DRGs from 7-8 weeks wild-type mice of both genders were dissected and then digested in 0.5% collagenase for 1.5 h. After termination of digestion, DRGs were pipetted 20-30 times in a tube for complete dissociation. Neurobasal-A with B27 as a supplement was used as a medium for DRG culture. Virus was added at 1 day in vitro (DIV1) for genetic manipulation. Atglistatin (10 μM), KLH-45 (1 μM), paradigastat (1 μM) or A-922500 (500 nM) treatment was used for ATGL, DDHD2 or DGAT1 inhibition.
For BODIPY staining on cultured DRG neurons, cells were first fixed in 4% PFA for 10 min and permeabilized with 0.1% Triton X-100 in 4% NGS. After cells were blocked, the Tuj1 antibody was applied in blocking buffer and incubated at 4° C. overnight. Coverslips were then washed three times with PBS and incubated with secondary antibodies at room temperature for 2 h. Cells were finally incubated with 200 nM BODIPY (Sigma) in blocking buffer for 30 min before mounting.
Experiments were performed to manipulate TG lipases in vitro. In cultured adult DRG neurons with vehicle treatment, lipid droplets were barely detected (FIG. 4B), consistent with the notion that neurons constantly turn over TGs with minimum storage. […] Then, the function of TG lipases was examined in axon regeneration in vivo. […]

In data set [4] the test system is cortical neurons. Put plainly: Total TG and PC levels in cortical neurons by enzymatic hydrolysis assays. The format is cell-based, mouse. Particulars: lipid hydrolysis assay, DGAT1 or DGAT2 depletion. The procedure: (§1) Cortical neurons were cultured as previously described. In short, the cortex from E18 C57/B6 mice of both genders was dissected and digested in 0.5 mg/mL papain for 30 min. Then, 100 μL fetal bovine serum (HyClone) was added to inactivate papain. The cells were then placed into Neurobasal medium (Gibco), supplemented with B27 (Gibco) and 1% penicillin-streptomycin (10,000 U/mL; Gibco). AraC (100 nM; Sigma) was used to inhibit glial proliferation in DIV1-DIV3. After 10 days of culture with AAV-scramble, AAV-shLipin1, AAV-shDgat1 or AAV-shDgat2, cells were harvested, and then TG or PC levels were measured according to the manufacturer's protocol (ab65336 and ab83377).
Because UPLC-MS might not identify all lipid molecular species, the total TG and PC levels were further measured by performing enzymatic hydrolysis assays. TG levels were decreased by 40% after Lipin1 depletion (FIG. 3E). […] Because injury triggers Lipin1 elevation in RGCs, the data on lipid changes after Lipin1 KD indicate that axotomy may program lipid metabolism to increase triglyceride and decrease PL production. This injury-triggered bias in lipid synthesis may contribute to the declined axon growth in CNS neurons. By depleting Lipin1, injured neurons may redirect two arms of the branch and shift lipid storage to membrane lipid production for axon regrowth.

The subject of data set [5] is cortical neurons. Put plainly: Lipid profile of cultured cortical neurons by UPLC-MS. The format is cell-based, mouse. The method, then: as §1
Lipid extraction was performed using the Folch method. Cortical neurons were lysed in a 2:1 chloroform:methanol mixture. After the upper phase was siphoned, the solvent was dried by line blowing with nitrogen. Lipid extracts were analyzed using a Synapt G2 HDMS mass spectrometer coupled with an ACQUITY UPLC system (Waters, Milford, USA). The UPLC separation was carried out using a Charge Surface Hybrid column (particle size: 1.7 μm; length: 100 mm; i.d.: 2.1 mm). The mobile phase consisted of solvent A (0.1% formic acid in water, v/v) and solvent B (0.1% formic acid in acetonitrile, v/v), each with 10 mM ammonium acetate. The elution gradient conditions were as follows: 0 min, 40% B; 2 min, 43% B; 2-2.1 min, 50% B; 12 min, 54% B; 12.1 min, 70% B; 12.1-18 min, 99% B. The flow rate was 0.2 mL min^−1, and the injection volume was 2 μL. A two minutes post-run time was set to fully equilibrate the column. Column temperature and sample chamber temperature were set to 55° C. and 6° C., respectively. […]
Because PAP activity is critical for Lipin1-dependent axon growth, it was hypothesized that Lipin1 may control axon regrowth by regulating glycerolipid synthesis in neurons. […] Glycerolipid levels were directly measured after eliminating glial cells by adding cytosine arabinoside (AraC) to the culture. […] Lipid extraction of cortical neurons was analyzed by ultra-performance liquid chromatography-mass spectrometry (UPLC-MS) system. […]

The mark [6] stands for this setting: after Dgat1 KD, compared to the control shRNA group.

For the compound “Lipin1 shRNA: short hairpin RNA against Lipin1, plasmid transfected into DRG neurons (CGGAACTCTGTAGACAGAAT)”, the “axon elongation enhanced by” value with adult DRG neurons (shRNA plasmid transfected for three days, replated, fixed 24 h after replating, vs control shRNA) stood at 20%.

On to `O=C(O)C[C@H]1CC[C@H](c2ccc(-c3ccc(Nc4ccc(C(F)(F)F)nc4)cn3)cc2)CC1` [pradigastat], for which the “axon regrowth / axon regeneration in DRG neuron culture” value in the data set with DRG neurons [1] is “demonstrated axon regrowth”.

In the case of `O=C(N(CCc1ccccc1)C1CCCCC1)n1ncc(-c2ccc(OC(F)(F)F)cc2)n1` [KLH-45], in the data set with DRG neurons [1], the “axon elongation in dissociated primary DRG neuron culture” value was “significantly inhibited axon elongation”. For the same compound, in data set [2], the “spontaneous sensory axon regeneration after sciatic nerve crush” value is “modestly inhibited”. In addition, the “TG storage in neurons (lipid droplet formation)” value with DRG neurons [3] was “dramatically increased TG storage”.

For the compound “shDgat2: Dgat2 shRNA targeting SEQ ID NO: 9 (GCTACTTCCGAGACTACTTT; target site or template, no part of the molecule)”, the “effect on axon regrowth / axon growth of DRG neurons” value in the data set on adult DRG neurons is recorded as “significantly boosted axon growth”. Moreover, in the data set with cortical neurons [4], the PC content result was “increased” and the “TG level in neurons” value is given as “decreased the TG level”.

As to `CN(C)C(=O)Nc1cccc(-c2ccc(N(C)C)cc2)c1` [Atglistatin], in the data set with DRG neurons [1], the “axon elongation in dissociated primary DRG neuron culture” value is on record as “significantly inhibited axon elongation”. The “TG storage in neurons (lipid droplet formation)” value with DRG neurons [3] is on record as “dramatically increased TG storage”.

Take “shDgat1: Dgat1 shRNA targeting SEQ ID NO: 8 (GCCCTTCAAGGATATGGACT; the letters are possibly those of the target site)”: in the data set on adult DRG neurons, the “effect on axon regrowth / axon growth of DRG neurons” value is recorded as “significantly boosted axon growth”. For the same compound, the “identified TG species levels” value with cortical neurons [5] (after Dgat1 KD vs control shRNA) is “decreased”. In the data set on cortical neurons [5] (setting [6]), the “PC(29:1) increase” value is listed as “more than eightfold” and the “PC(36:2) increase” value is listed as “more than eightfold”. Moreover, in the data set with cortical neurons [4], the PC content entry is “increased” and the “TG level in neurons” value is given as “decreased the TG level”.

Regarding `O=C(Nc1ccccc1)Nc1ccc(-c2ccc(C(=O)[C@@H]3CCC[C@H]3C(=O)O)cc2)cc1` [A-922500], in the data set on DRG neurons [1], the “axon regrowth / axon regeneration in DRG neuron culture” value is reported as “demonstrated axon regrowth”.

(Values after patent US12016933B2, “Method for stimulating axonal regeneration” (The Hong Kong University of Science and Technology, priority 2020, dated 2024).)
